# Measured values published in US12152017B2, “Ketoamide compound and preparation method, pharmaceutical composition, and use thereof” (Shanghai Institute of Materia Medica, Chinese Academy of …, priority 2018, dated 2024).
# Values joined by “and” are separate entries in the source; they are usually repeats but may differ in a detail not shown here. Equal entries are not always repeated. Where two headings read alike, the source gives them in different places.
# What was measured:
# [1] = Pharmacokinetic study in CD-1 mice (gavage, intravenous, intraperitoneal); type: in vivo; details: 20 mg/kg; for Cmax / Tmax / half-life / AUC(0-inf) / AUC(0-t) / MRT inf: male, CD-1, mouse, plasma; for AUC(0-inf): read-out: AUC INF_obs; for MRT inf: read-out: MRT INF_obs
# Method: Nine CD-1 mice, male, weighing 18-22 g, were randomly divided into 3 groups with 3 mice in each group. The test compounds were administered by gavage, intravenously and intraperitoneally according to the following schemes.
# Before the test, they were fasted for 12 hours and were allowed to drink water freely, and were fed uniformly 2 h after administration.
# There were 3 animals at each time point.
# The solution for gavage administration was formulated with DMSO/0.5% HPMC (5/95, v/v) into the final concentration. Intravenous and intraperitoneal administration were formulated with DMSO/PEG300/EtOH/NaCl (5/40/5/50, v/v/v). Retention samples of the dosing solution (50 μL of the drug solution was taken and mixed well with 50 μL of DMSO before and after the administration) for testing.
# The drug was administered according to the above dosage, the time of administration were recorded, and 20 μL of blood was collected from the mouse femoral plexus at the above set time point and placed in a heparinized test tube and centrifuged immediately at 11000 rpm for 5 min. 10 μL of plasma was immediately and accurately drawn into a centrifuge tube pre-filled with 100 μL of PK-IS solution (prepared with methanol:acetonitrile (1:1, v/v)), mixed well, and frozen to store at −20° C. for testing.
# MERS-CoV pseudovirus = experiment: microbe, parasite or virus in culture; type: cell-based; details: Middle East respiratory syndrome-related coronavirus, Huh-7, read-out: MERS-CoV pseudovirus inhibitory activity IC50
# [2] = i.p. (20 mg/Kg per Table 3), individual animal
# [3] = ip, i.p. (20 mg/Kg per Table 3), Mean of 3 mice
# [4] = ip, i.p. (20 mg/Kg per Table 3), Mean of 3 mice, read-out: AUC last (exposure for intraperitoneal injection)
# [5] = ip, i.p. (20 mg/Kg per Table 3), individual animal
# [6] = ip, i.p. (20 mg/Kg per Table 3), individual animal, read-out: AUC last
# [7] = po, p.o. (gavage 20 mg/Kg per Table 3), Mean of 3 mice
# [8] = po, p.o. (gavage 20 mg/Kg per Table 3), Mean of 3 mice, read-out: AUC last (oral exposure)
# [9] = po, p.o. (gavage 20 mg/Kg per Table 3), individual animal
# [10] = p.o. (gavage 20 mg/Kg per Table 3), individual animal
Compound,"AUC INF_obs [1, 2]","AUC last [1, 2]","C max [1, 2]","MRT INF_obs [1, 2]","T1/2 [1, 2]","Cmax [1, 3] [ng/mL]","Tmax [1, 3] [h]","half-life [1, 3] [h]","AUC(0-inf) [1, 3] [ng·h/mL]","AUC(0-t) [1, 4] [ng·h/mL]","MRT inf [1, 3] [h]","Cmax [1, 5] [ng/mL]","half-life [1, 5] [h]","AUC(0-inf) [1, 5] [ng·h/mL]","AUC(0-t) [1, 6] [ng·h/mL]","MRT inf [1, 5] [h]","Cmax [1, 7] [ng/mL]","Tmax [1, 7] [h]","half-life [1, 7] [h]","AUC(0-inf) [1, 7] [ng·h/mL]",also measured
Cc1cnc(C(=O)N[C@@H](CC2CCCCC2)C(=O)N[C@@H](C[C@@H]2CCCNC2=O)C(=O)C(=O)NCc2ccccc2)o1 [Example A241],3524 ng·h/mL and 4121 ng·h/mL,3514 ng·h/mL and 4100 ng·h/mL,4206 ng/mL and 4836 ng/mL,1.37 h and 1.50 h,3.59 h and 4.72 h,4660,0.18,4.36,4180,4160,1.44,4930,4.78,4900,4870,1.44,767,0.25,4.22,665,"T max [1, 2]: 3 min; AUC(0-t) [1, 8]: 663 ng·h/mL; MRT inf [1, 7]: 1.82 h; Cmax [1, 9]: 707 ng/mL; Tmax [1, 9]: 0.25 h; half-life [1, 9]: 3.84 h; MRT inf [1, 9]: 2.12 h; AUC INF_obs [1, 10]: 469 ng·h/mL and 947 ng·h/mL and 579 ng·h/mL; AUC last [1, 10]: 467 ng·h/mL and 945 ng·h/mL and 576 ng·h/mL; C max [1, 10]: 942 ng/mL and 651 ng/mL; MRT INF_obs [1, 10]: 1.68 h and 1.64 h; T1/2 [1, 10]: 3.85 h and 4.96 h; IC50 (MERS-CoV pseudovirus): 2.5 ± 1.3 nM"
"Cc1cnc(C(=O)N[C@@H](CC2CCCCC2)C(=O)N[C@@H](C[C@@H]2CCNC2=O)C(=O)C(=O)NCc2ccccc2)o1 [Example A242, N—((S)-1-(((S)-4-(benzylamino)-3,4-dione-1-((S)-2-oxopyrrolidine-3-yl)but-2-yl)amino)-3-cyclohexyl-1-oxopropan-2-yl)-5-methyloxazole-2-carboxamide]",5808 ng·h/mL and 6750 ng·h/mL,5779 ng·h/mL and 6628 ng·h/mL,4739 ng/mL and 5334 ng/mL,1.85 h and 2.45 h,4.37 h and 6.75 h,5490,0.25,5.32,6960,6890,2.07,6400,4.85,8320,8260,1.92,409,0.25,4.51,493,"Tmax [1, 5]: 0.25 h; AUC(0-t) [1, 8]: 488 ng·h/mL; MRT inf [1, 7]: 2.56 h; Tmax [1, 9]: 0.25 h; half-life [1, 9]: 4 h; AUC(0-inf) [1, 9]: 436 ng·h/mL; AUC(0-t) ([1]; po, p.o. (gavage 20 mg/Kg per Table 3), individual animal, read-out: AUC last): 434 ng·h/mL; MRT inf [1, 9]: 2.13 h; AUC INF_obs [1, 10]: 413 ng·h/mL and 629 ng·h/mL; AUC last [1, 10]: 409 ng·h/mL and 622 ng·h/mL; C max [1, 10]: 499 ng/mL and 247 ng/mL and 482 ng/mL; MRT INF_obs [1, 10]: 2.84 h and 2.71 h; T1/2 [1, 10]: 4.63 h and 4.91 h; IC50 (MERS-CoV pseudovirus): 2.2 ± 0.8 nM"
